Assay results: ChEMBL document CHEMBL6078630, “Design, synthesis, and bioactivity investigation of novel cyclic lipopeptide antibiotics targeting top-priority multidrug-resistant gram-negative bacteria” (Eur J Med Chem, 2024)
Bridge positions count the residues as written; N and C are the ends. Square brackets hold non-standard residues; d marks the D form. Peptide text beside a SMILES is read from it. * marks the point of attachment. Octanoyl(6-Me) = CCC(C)CCCCC(=O)*; X1 = CC[C@H](C)CCCCC(=O)*; Dab = NCC[C@H](N)C(=O)O

What was measured:
[1] = test system: Escherichia coli; test: Antibacterial activity against Escherichia coli ATCC BAA-2523 assessed as inhibition of bacterial growth incubated for 16 to 20 hrs by CLSI protocol based broth microdilution method; assay type: functional; settings: time 16-20 hrs
[2] = test system: Escherichia coli; test: Antibacterial activity against carbapenem-resistant Escherichia coli ATCC BAA-2340 assessed as inhibition of bacterial growth incubated for 16 to 20 hrs by CLSI protocol based broth microdilution method; assay type: functional; settings: time 16-20 hrs
[3] = test system: Klebsiella pneumoniae; test: Antibacterial activity against carbapenem-resistant Klebsiella pneumoniae clinical isolate KPN+19-15 assessed as inhibition of bacterial growth incubated for 16 to 20 hrs by CLSI protocol based broth microdilution method; assay type: functional; settings: time 16-20 hrs
[4] = test system: Klebsiella pneumoniae; test: Antibacterial activity against carbapenem-resistant Klebsiella pneumoniae ATCC BAA-1705 assessed as inhibition of bacterial growth incubated for 16 to 20 hrs by CLSI protocol based broth microdilution method; assay type: functional; settings: time 16-20 hrs
[5] = test system: Pseudomonas aeruginosa; test: Antibacterial activity against carbapenem-resistant Pseudomonas aeruginosa clinical isolate 19-3 assessed as inhibition of bacterial growth incubated for 16 to 20 hrs by CLSI protocol based broth microdilution method; assay type: functional; settings: time 16-20 hrs
[6] = test system: Pseudomonas aeruginosa; test: Antibacterial activity against Pseudomonas aeruginosa ATCC 27853 assessed as inhibition of bacterial growth incubated for 16 to 20 hrs by CLSI protocol based broth microdilution method; assay type: functional; settings: time 16-20 hrs
[7] = test system: Acinetobacter baumannii; test: Antibacterial activity against carbapenem-sensitive Acinetobacter baumannii clinical isolate 19-1 assessed as inhibition of bacterial growth incubated for 16 to 20 hrs by CLSI protocol based broth microdilution method; assay type: functional; settings: time 16-20 hrs
[8] = test system: Acinetobacter baumannii; test: Antibacterial activity against Acinetobacter baumannii NCTC 13304 (OXA-27) assessed as inhibition of bacterial growth incubated for 16 to 20 hrs by CLSI protocol based broth microdilution method; assay type: functional; settings: time 16-20 hrs
[9] = test system: Escherichia coli; test: Antibacterial activity against carbapenem-resistant Escherichia coli clinical isolate 231016w014 assessed as inhibition of bacterial growth incubated for 24 hrs by CLSI protocol based broth microdilution method; assay type: functional
[10] = test system: Escherichia coli; test: Antibacterial activity against carbapenem-resistant Escherichia coli clinical isolate 231112E006B assessed as inhibition of bacterial growth incubated for 24 hrs by CLSI protocol based broth microdilution method; assay type: functional
[11] = test system: Escherichia coli; test: Antibacterial activity against carbapenem-resistant Escherichia coli clinical isolate 231109W005 assessed as inhibition of bacterial growth incubated for 24 hrs by CLSI protocol based broth microdilution method; assay type: functional
[12] = test system: Klebsiella pneumoniae; test: Antibacterial activity against carbapenem-resistant Klebsiella pneumoniae clinical isolate ets26 assessed as inhibition of bacterial growth incubated for 24 hrs by CLSI protocol based broth microdilution method; assay type: functional
[13] = test system: Klebsiella pneumoniae; test: Antibacterial activity against carbapenem-resistant Klebsiella pneumoniae clinical isolate ets40 assessed as inhibition of bacterial growth incubated for 24 hrs by CLSI protocol based broth microdilution method; assay type: functional
[14] = test system: Klebsiella pneumoniae; test: Antibacterial activity against carbapenem-resistant Klebsiella pneumoniae clinical isolate ets45 assessed as inhibition of bacterial growth incubated for 24 hrs by CLSI protocol based broth microdilution method; assay type: functional
[15] = test system: Klebsiella pneumoniae; test: Antibacterial activity against carbapenem-resistant Klebsiella pneumoniae clinical isolate ets74 assessed as inhibition of bacterial growth incubated for 24 hrs by CLSI protocol based broth microdilution method; assay type: functional
[16] = test system: Klebsiella pneumoniae; test: Antibacterial activity against carbapenem-resistant Klebsiella pneumoniae clinical isolate ets75 assessed as inhibition of bacterial growth incubated for 24 hrs by CLSI protocol based broth microdilution method; assay type: functional
[17] = test system: Klebsiella pneumoniae; test: Antibacterial activity against carbapenem-resistant Klebsiella pneumoniae clinical isolate ets77 assessed as inhibition of bacterial growth incubated for 24 hrs by CLSI protocol based broth microdilution method; assay type: functional
[18] = test system: Klebsiella pneumoniae; test: Antibacterial activity against carbapenem-resistant Klebsiella pneumoniae clinical isolate ets78 assessed as inhibition of bacterial growth incubated for 24 hrs by CLSI protocol based broth microdilution method; assay type: functional
[19] = test system: Klebsiella pneumoniae; test: Antibacterial activity against carbapenem-resistant Klebsiella pneumoniae clinical isolate ets80 assessed as inhibition of bacterial growth incubated for 24 hrs by CLSI protocol based broth microdilution method; assay type: functional
[20] = test system: Pseudomonas aeruginosa; test: Antibacterial activity against carbapenem-resistant Pseudomonas aeruginosa clinical isolate ets5 assessed as inhibition of bacterial growth incubated for 24 hrs by CLSI protocol based broth microdilution method; assay type: functional
[21] = test system: Pseudomonas aeruginosa; test: Antibacterial activity against carbapenem-resistant Pseudomonas aeruginosa clinical isolate ets6 assessed as inhibition of bacterial growth incubated for 24 hrs by CLSI protocol based broth microdilution method; assay type: functional
[22] = test system: Pseudomonas aeruginosa; test: Antibacterial activity against carbapenem-resistant Pseudomonas aeruginosa clinical isolate ets15 assessed as inhibition of bacterial growth incubated for 24 hrs by CLSI protocol based broth microdilution method; assay type: functional
[23] = test system: Pseudomonas aeruginosa; test: Antibacterial activity against carbapenem-resistant Pseudomonas aeruginosa clinical isolate ets22 assessed as inhibition of bacterial growth incubated for 24 hrs by CLSI protocol based broth microdilution method; assay type: functional
[24] = test system: Pseudomonas aeruginosa; test: Antibacterial activity against carbapenem-resistant Pseudomonas aeruginosa clinical isolate ets33 assessed as inhibition of bacterial growth incubated for 24 hrs by CLSI protocol based broth microdilution method; assay type: functional
[25] = test system: Pseudomonas aeruginosa; test: Antibacterial activity against carbapenem-resistant Pseudomonas aeruginosa clinical isolate ets38 assessed as inhibition of bacterial growth incubated for 24 hrs by CLSI protocol based broth microdilution method; assay type: functional
[26] = test system: Pseudomonas aeruginosa; test: Antibacterial activity against carbapenem-resistant Pseudomonas aeruginosa clinical isolate ets49 assessed as inhibition of bacterial growth incubated for 24 hrs by CLSI protocol based broth microdilution method; assay type: functional
[27] = test system: Pseudomonas aeruginosa; test: Antibacterial activity against carbapenem-resistant Pseudomonas aeruginosa clinical isolate ets55 assessed as inhibition of bacterial growth incubated for 24 hrs by CLSI protocol based broth microdilution method; assay type: functional
[28] = test system: Pseudomonas aeruginosa; test: Antibacterial activity against carbapenem-resistant Pseudomonas aeruginosa clinical isolate ets83 assessed as inhibition of bacterial growth incubated for 24 hrs by CLSI protocol based broth microdilution method; assay type: functional
[29] = test system: Pseudomonas aeruginosa; test: Antibacterial activity against carbapenem-resistant Pseudomonas aeruginosa clinical isolate ets84 assessed as inhibition of bacterial growth incubated for 24 hrs by CLSI protocol based broth microdilution method; assay type: functional
[30] = test system: Pseudomonas aeruginosa; test: Antibacterial activity against carbapenem-resistant Pseudomonas aeruginosa clinical isolate ets85 assessed as inhibition of bacterial growth incubated for 24 hrs by CLSI protocol based broth microdilution method; assay type: functional
[31] = test system: Pseudomonas aeruginosa; test: Antibacterial activity against carbapenem-resistant Pseudomonas aeruginosa clinical isolate ets104 assessed as inhibition of bacterial growth incubated for 24 hrs by CLSI protocol based broth microdilution method; assay type: functional
[32] = test system: Acinetobacter baumannii; test: Antibacterial activity against carbapenem-resistant Acinetobacter baumannii clinical isolate ets30 assessed as inhibition of bacterial growth incubated for 24 hrs by CLSI protocol based broth microdilution method; assay type: functional
[33] = test system: Acinetobacter baumannii; test: Antibacterial activity against carbapenem-resistant Acinetobacter baumannii clinical isolate ets104 assessed as inhibition of bacterial growth incubated for 24 hrs by CLSI protocol based broth microdilution method; assay type: functional
[34] = test system: Acinetobacter baumannii; test: Antibacterial activity against carbapenem-resistant Acinetobacter baumannii clinical isolate ets123 assessed as inhibition of bacterial growth incubated for 24 hrs by CLSI protocol based broth microdilution method; assay type: functional
[35] = test system: Acinetobacter baumannii; test: Antibacterial activity against carbapenem-resistant Acinetobacter baumannii clinical isolate ets171 assessed as inhibition of bacterial growth incubated for 24 hrs by CLSI protocol based broth microdilution method; assay type: functional
[36] = test system: Acinetobacter baumannii; test: Antibacterial activity against carbapenem-resistant Acinetobacter baumannii clinical isolate ets178 assessed as inhibition of bacterial growth incubated for 24 hrs by CLSI protocol based broth microdilution method; assay type: functional
[37] = test system: Klebsiella pneumoniae; test: Antibacterial activity against carbapenem-resistant Klebsiella pneumoniae clinical isolate KPN+19-15 infected in ICR mouse model administered intravenously with compound at 1 and 6 hrs post-infection and measured after 7 days; assay type: functional; settings: 168 h, route iv, time 7 day
[38] = test system: Klebsiella pneumoniae; test: Antibacterial activity against carbapenem-resistant Klebsiella pneumoniae clinical isolate KPN+19-15 infected in ICR mouse model assessed as survival rate at 4 mg/kg, iv administered at 1 and 6 hrs post-infection and measured after 7 days relative to control; assay type: functional; settings: 168 h, time 7 day
[39] = test system: Pseudomonas aeruginosa; test: Antibacterial activity against Pseudomonas aeruginosa ATCC 27853 infected in ICR mouse model infected in ICR mouse model assessed as survival rate at 2 mg/kg, iv administered at 1 and 6 hrs post-infection and measured after 7 days relative to control; assay type: functional; settings: ATCC 27853, 168 h, time 7 day
[40] = Acute toxicity in iv dosed Swiss mouse assessed as maximum tolerated dose measured after 24 hrs; assay type: organism-based; settings: in vivo
[41] = test system: Pseudomonas aeruginosa; test: Antibacterial activity against Pseudomonas aeruginosa ATCC 27853 infected in ICR mouse model administered intravenously with compound at 1 and 6 hrs post-infection and measured after 7 days; assay type: functional; settings: ATCC 27853, 168 h, route iv, time 7 day
[42] = test system: Pseudomonas aeruginosa; test: Antibacterial activity against Pseudomonas aeruginosa ATCC 27853 infected in ICR mouse model infected in ICR mouse model assessed as survival rate at 20 mg/kg, iv administered at 1 and 6 hrs post-infection and measured after 7 days relative to control; assay type: functional; settings: ATCC 27853, 168 h, time 7 day

CC(C)CCCCC(=O)N[C@@H](CCN)C(=O)N[C@H](C(=O)N[C@@H](CCN)C(=O)N[C@H]1CCNC(=O)[C@H]([C@@H](C)O)NC(=O)[C@H](CCN)NC(=O)[C@H](CCN)NC(=O)[C@H](CC(C)C)NC(=O)[C@@H](Cc2ccccc2)NC(=O)[C@H](CCN)NC1=O)[C@@H](C)O.CC[C@H](C)CCCCC(=O)N[C@@H](CCN)C(=O)N[C@H](C(=O)N[C@@H](CCN)C(=O)N[C@H]1CCNC(=O)[C@H]([C@@H](C)O)NC(=O)[C@H](CCN)NC(=O)[C@H](CCN)NC(=O)[C@H](CC(C)C)NC(=O)[C@@H](Cc2ccccc2)NC(=O)[C@H](CCN)NC1=O)[C@@H](C)O (X1-[Dab]T[Dab][Dab][Dab][dF]L[Dab][Dab]T; lactam 4-C)
MIC [1]: ≤ 0.03 µg/mL | MIC [2]: ≤ 0.03 µg/mL | MIC [3]: 0.125 µg/mL | MIC [4]: 0.125 µg/mL | MIC [5]: 0.25 µg/mL | MIC [6]: 0.25 µg/mL | MIC [7]: 0.25 µg/mL | MIC [8]: 0.06 µg/mL | MIC [9]: < 0.06 µg/mL | MIC [10]: < 0.06 µg/mL | MIC [11]: < 0.06 µg/mL | MIC [12]: 2 µg/mL | MIC [13]: 1 µg/mL | MIC [14]: 2 µg/mL | MIC [15]: 1 µg/mL | MIC [16]: 1 µg/mL | MIC [17]: 1 µg/mL | MIC [18]: 0.5 µg/mL | MIC [19]: 1 µg/mL | MIC [20]: 2 µg/mL | MIC [21]: 2 µg/mL | MIC [22]: 1 µg/mL | MIC [23]: 4 µg/mL | MIC [24]: 4 µg/mL | MIC [25]: 4 µg/mL | MIC [26]: 4 µg/mL | MIC [27]: 4 µg/mL | MIC [28]: 1 µg/mL | MIC [29]: 0.5 µg/mL | MIC [30]: 4 µg/mL | MIC [31]: 4 µg/mL | MIC [32]: 1 µg/mL | MIC [33]: 0.125 µg/mL | MIC [34]: 1 µg/mL | MIC [35]: 2 µg/mL | MIC [36]: 2 µg/mL | ED50 [37]: 2.7 mg/kg | survival at 4 mg/kg [38]: 62.5% | survival at 2 mg/kg [39]: 37.5%

CCC(C)CCCCC(=O)N[C@@H](CCN)C(=O)N[C@H](C(=O)N[C@@H](CCN)C(=O)N[C@H]1CCNC(=O)[C@H]([C@@H](C)O)NC(=O)[C@H](CCN)NC(=O)[C@H](CCN)NC(=O)[C@H](CC(C)C)NC(=O)[C@@H](CC(C)C)NC(=O)[C@H](CCN)NC1=O)[C@@H](C)O (stereo partly drawn) ({Octanoyl(6-Me)}-[Dab]T[Dab][Dab][Dab][dL]L[Dab][Dab]T; lactam 4-C)
MTD at 24 h [40]: 5.3 mg/kg

C[C@@H](O)[C@H]1C(=O)N2C(C(=O)O)=C(S[C@@H]3CN[C@H](C(=O)N(C)C)C3)[C@H](C)[C@H]12 [MEROPENEM]
ED50 [41]: 7.07 mg/kg | survival at 20 mg/kg [42]: 100%
